From patent publication US20240245793A1, “PSD-95 INHIBITORS AND USES THEREOF” (priority 2021, published 2024)
Read-outs that look alike come from different tables or passages of the source.

Target: T1, plasmin (Homo sapiens, UniProt P00747)
T1 construct: Tissue plasminogen factor (tPA), which generates plasmin from plasminogen
Assay: In vitro plasmin stability assay
Type: in vitro ADME
Description: At selected time points during the incubation, the ligands were extracted from 80 μL of assay matrix by treatment with 80 μL of 50% acetonitrile (ACN). The samples were filtered and analysed by UPLC to determine the amount of ligand remaining. LC-MS analysis was performed to confirm ligand integrity and identify cleavage sites.

[1] = isolated enzyme plasmin, read-out: T1/2

T1 sequence (P00747 581-810 limits assumed, species assumed): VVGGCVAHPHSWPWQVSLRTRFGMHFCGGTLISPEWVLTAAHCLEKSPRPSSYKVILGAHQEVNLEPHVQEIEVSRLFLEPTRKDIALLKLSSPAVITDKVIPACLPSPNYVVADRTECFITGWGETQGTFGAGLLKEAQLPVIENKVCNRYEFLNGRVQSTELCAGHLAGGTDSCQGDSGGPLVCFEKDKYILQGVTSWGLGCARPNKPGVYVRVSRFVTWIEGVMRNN
T1 sequence (P00747 97-580 partner limits assumed, species assumed): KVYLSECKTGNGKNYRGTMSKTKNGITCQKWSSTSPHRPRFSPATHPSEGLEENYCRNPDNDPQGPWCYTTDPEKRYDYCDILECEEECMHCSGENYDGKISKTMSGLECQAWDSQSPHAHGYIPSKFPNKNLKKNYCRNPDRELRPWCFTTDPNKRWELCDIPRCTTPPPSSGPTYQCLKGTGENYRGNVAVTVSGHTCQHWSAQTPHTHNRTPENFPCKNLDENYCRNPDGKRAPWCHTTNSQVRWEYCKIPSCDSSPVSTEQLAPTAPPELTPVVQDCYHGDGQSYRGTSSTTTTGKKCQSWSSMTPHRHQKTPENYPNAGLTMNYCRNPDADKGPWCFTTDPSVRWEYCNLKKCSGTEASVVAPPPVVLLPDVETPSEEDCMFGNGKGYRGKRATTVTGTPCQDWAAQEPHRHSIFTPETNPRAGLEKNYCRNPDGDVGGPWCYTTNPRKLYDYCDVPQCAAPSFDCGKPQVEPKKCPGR

SMILES | half-life at 100 μM (isolated enzyme plasmin) [h] | other results
CC[C@H](C)[C@H](NC(=O)CCOCCOCCN(CCOCCOCCC(=O)N[C@H](C(=O)N[C@@H](CCC(=O)O)C(=O)N[C@H](C(=O)N[C@@H](CC(=O)O)C(=O)N[C@H](C(=O)O)C(C)C)[C@@H](C)O)[C@@H](C)CC)C(=O)[C@H](CCCNC(=N)N)NC(=O)[C@H](CCCNC(=N)N)NC(=O)[C@H](CCCNC(=N)N)NC(=O)[C@H](CCC(N)=O)NC(=O)[C@H](CCCNC(=N)N)NC(=O)[C@H](CCCNC(=N)N)NC(=O)[C@H](CCCCN)NC(=O)[C@H](CCCCN)NC(=O)[C@H](CCCNC(=N)N)NC(=O)CNC(=O)[C@H](Cc1ccc(O)cc1)NC(C)=O)C(=O)N[C@@H](CCC(=O)O)C(=O)N[C@H](C(=O)N[C@@H](CC(=O)O)C(=O)N[C@H](C(=O)O)C(C)C)[C@@H](C)O [Compound 9] |  | half-life [1]: 3.82 ± 2.15 h; half-life (read-out: T1/2): 3.82 ± 2.15 h
CC(=O)N[C@@H](CCCNC(=N)N)C(=O)N[C@@H](CCCNC(=N)N)C(=O)N[C@@H](CCCNC(=N)N)C(=O)N[C@@H](CCCNC(=N)N)C(=O)N[C@@H](CCCNC(=N)N)C(=O)N[C@@H](CCCNC(=N)N)C(=O)N[C@@H](CCCNC(=N)N)C(=O)N[C@@H](CCCNC(=N)N)C(=O)N[C@@H](CCCNC(=N)N)C(=O)N(CCOCCOCCC(=O)N[C@@H](CCCCN)C(=O)N[C@@H](CCC(=O)O)C(=O)N[C@H](C(=O)N[C@H](C(=O)N[C@H](C(=O)O)C(C)C)[C@@H](C)O)[C@@H](C)O)CCOCCOCCC(=O)N[C@@H](CCCCN)C(=O)N[C@@H](CCC(=O)O)C(=O)N[C@H](C(=O)N[C@H](C(=O)N[C@H](C(=O)O)C(C)C)[C@@H](C)O)[C@@H](C)O [Compound 25] | 19.2 ± 3.38 | 
CC(=O)N[C@@H](CCCNC(=N)N)C(=O)N[C@@H](CCCNC(=N)N)C(=O)N[C@@H](CCCNC(=N)N)C(=O)N[C@@H](CCCNC(=N)N)C(=O)N[C@@H](CCCNC(=N)N)C(=O)N[C@@H](CCCNC(=N)N)C(=O)N[C@@H](CCCNC(=N)N)C(=O)N[C@@H](CCCNC(=N)N)C(=O)N[C@@H](CCCNC(=N)N)C(=O)N(CCOCCOCCC(=O)N[C@@H](CCCCN)C(=O)N[C@@H](CCC(=O)O)C(=O)N[C@H](C(=O)N[C@@H](CCCNC(=N)N)C(=O)N[C@H](C(=O)O)C(C)C)[C@@H](C)O)CCOCCOCCC(=O)N[C@@H](CCCCN)C(=O)N[C@@H](CCC(=O)O)C(=O)N[C@H](C(=O)N[C@@H](CCCNC(=N)N)C(=O)N[C@H](C(=O)O)C(C)C)[C@@H](C)O [Compound 29] | 16.7 ± 2.85 | 
CC(=O)N[C@@H](CCCNC(=N)N)C(=O)N[C@@H](CCCNC(=N)N)C(=O)N[C@@H](CCCNC(=N)N)C(=O)N[C@@H](CCCNC(=N)N)C(=O)N[C@@H](CCCNC(=N)N)C(=O)N[C@@H](CCCNC(=N)N)C(=O)N[C@@H](CCCNC(=N)N)C(=O)N[C@@H](CCCNC(=N)N)C(=O)N[C@@H](CCCNC(=N)N)C(=O)N(CCOCCOCCC(=O)N[C@H](C(=O)N[C@@H](CCC(=O)O)C(=O)N[C@H](C(=O)N[C@H](C(=O)N[C@H](C(=O)O)C(C)C)C(C)C)[C@@H](C)O)C(C)C)CCOCCOCCC(=O)N[C@H](C(=O)N[C@@H](CCC(=O)O)C(=O)N[C@H](C(=O)N[C@H](C(=O)N[C@H](C(=O)O)C(C)C)C(C)C)[C@@H](C)O)C(C)C [Compound 33] | 7.98 ± 1.28 | 
CC[C@H](C)[C@H](NC(=O)CCOCCOCCN(CCOCCOCCC(=O)N[C@H](C(=O)N[C@@H](CCC(=O)O)C(=O)N[C@H](C(=O)N[C@@H](CC(=O)O)C(=O)N[C@H](C(=O)O)C(C)C)[C@@H](C)O)[C@@H](C)CC)C(=O)[C@@H](CCCNC(=N)N)NC(=O)[C@@H](CCCNC(=N)N)NC(=O)[C@@H](CCCNC(=N)N)NC(=O)[C@@H](CCC(N)=O)NC(=O)[C@@H](CCCNC(=N)N)NC(=O)[C@@H](CCCNC(=N)N)NC(=O)[C@@H](CCCCN)NC(=O)[C@@H](CCCCN)NC(=O)[C@@H](CCCNC(=N)N)NC(=O)CNC(=O)[C@@H](Cc1ccc(O)cc1)NC(C)=O)C(=O)N[C@@H](CCC(=O)O)C(=O)N[C@H](C(=O)N[C@@H](CC(=O)O)C(=O)N[C@H](C(=O)O)C(C)C)[C@@H](C)O [Compound 38] |  | half-life [1]: 24 h
CC[C@H](C)[C@H](NC(=O)CCOCCOCCN(CCOCCOCCC(=O)N[C@H](C(=O)N[C@@H](CCC(=O)O)C(=O)N[C@H](C(=O)N[C@@H](CC(=O)O)C(=O)N[C@H](C(=O)O)C(C)C)[C@@H](C)O)[C@@H](C)CC)C(=O)[C@H](CCCCN)NC(=O)[C@H](CCCCN)NC(=O)[C@H](Cc1c[nH]c2ccccc12)NC(=O)[C@H](CCCCN)NC(=O)[C@H](CCSC)NC(=O)[C@H](CCCNC(=N)N)NC(=O)[C@H](CCCNC(=N)N)NC(=O)[C@H](CC(N)=O)NC(=O)[C@H](CCC(N)=O)NC(=O)[C@H](Cc1ccccc1)NC(=O)[C@H](Cc1c[nH]c2ccccc12)NC(=O)[C@@H](NC(=O)[C@H](CCCCN)NC(=O)[C@@H](NC(=O)[C@H](CCC(N)=O)NC(=O)[C@H](CCCNC(=N)N)NC(C)=O)[C@@H](C)CC)[C@@H](C)CC)C(=O)N[C@@H](CCC(=O)O)C(=O)N[C@H](C(=O)N[C@@H](CC(=O)O)C(=O)N[C@H](C(=O)O)C(C)C)[C@@H](C)O [Compound 46] |  | half-life (isolated enzyme plasmin): 1.57 ± 0.133 h
CC[C@@H](C)[C@@H](NC(=O)[C@@H](CCCCN)NC(=O)[C@H](NC(=O)[C@@H](CCC(N)=O)NC(=O)[C@@H](CCCNC(=N)N)NC(C)=O)[C@H](C)CC)C(=O)N[C@H](Cc1c[nH]c2ccccc12)C(=O)N[C@H](Cc1ccccc1)C(=O)N[C@H](CCC(N)=O)C(=O)N[C@H](CC(N)=O)C(=O)N[C@H](CCCNC(=N)N)C(=O)N[C@H](CCCNC(=N)N)C(=O)N[C@H](CCSC)C(=O)N[C@H](CCCCN)C(=O)N[C@H](Cc1c[nH]c2ccccc12)C(=O)N[C@H](CCCCN)C(=O)N[C@H](CCCCN)C(=O)N(CCOCCOCCC(=O)N[C@H](C(=O)N[C@@H](CCC(=O)O)C(=O)N[C@H](C(=O)N[C@@H](CC(=O)O)C(=O)N[C@H](C(=O)O)C(C)C)[C@@H](C)O)[C@@H](C)CC)CCOCCOCCC(=O)N[C@H](C(=O)N[C@@H](CCC(=O)O)C(=O)N[C@H](C(=O)N[C@@H](CC(=O)O)C(=O)N[C@H](C(=O)O)C(C)C)[C@@H](C)O)[C@@H](C)CC [Compound 48] |  | half-life [1]: 24 h
CC[C@H](C)[C@H](NC(=O)CCOCCOCCN(CCOCCOCCC(=O)N[C@H](C(=O)N[C@@H](CCC(=O)O)C(=O)N[C@H](C(=O)N[C@@H](CC(=O)O)C(=O)N[C@H](C(=O)O)C(C)C)[C@@H](C)O)[C@@H](C)CC)C(=O)[C@H](CO)NC(=O)[C@H](CCC(=O)O)NC(=O)[C@H](CCCNC(=N)N)NC(=O)[C@H](CCCNC(=N)N)NC(=O)[C@H](CCCNC(=N)N)NC(=O)[C@H](CCCCN)NC(=O)[C@H](CCCCN)NC(=O)[C@H](CCCNC(=N)N)NC(=O)[C@H](CO)NC(=O)[C@H](CCC(=O)O)NC(=O)[C@H](CCCNC(=N)N)NC(=O)[C@H](CCCNC(=N)N)NC(=O)[C@H](CCCNC(=N)N)NC(=O)[C@H](CCCCN)NC(=O)[C@H](CCCCN)NC(=O)[C@H](CCCNC(=N)N)NC(C)=O)C(=O)N[C@@H](CCC(=O)O)C(=O)N[C@H](C(=O)N[C@@H](CC(=O)O)C(=O)N[C@H](C(=O)O)C(C)C)[C@@H](C)O [Compound 50] | 2.82 ± 0.333 | 

Further lines, with some results ahead:

half-life at 100 μM (isolated enzyme plasmin) [h] | SMILES | other results
25.5 ± 9.63 | CC(=O)N[C@@H](CCCNC(=N)N)C(=O)N[C@@H](CCCNC(=N)N)C(=O)N[C@@H](CCCNC(=N)N)C(=O)N[C@@H](CCCNC(=N)N)C(=O)N[C@@H](CCCNC(=N)N)C(=O)N[C@@H](CCCNC(=N)N)C(=O)N[C@@H](CCCNC(=N)N)C(=O)N[C@@H](CCCNC(=N)N)C(=O)N[C@@H](CCCNC(=N)N)C(=O)N(CCOCCOCCC(=O)N[C@@H](CCCCN)C(=O)N[C@@H](CCC(=O)O)C(=O)N[C@H](C(=O)N[C@H](C(=O)N[C@H](C(=O)O)C(C)C)C(C)C)[C@@H](C)O)CCOCCOCCC(=O)N[C@@H](CCCCN)C(=O)N[C@@H](CCC(=O)O)C(=O)N[C@H](C(=O)N[C@H](C(=O)N[C@H](C(=O)O)C(C)C)C(C)C)[C@@H](C)O [Compound 27] | 
23.4 ± 2.07 | CC[C@H](C)[C@H](NC(=O)CCOCCOCCN(CCOCCOCCC(=O)N[C@H](C(=O)N[C@@H](CO)C(=O)N[C@H](C(=O)N[C@@H](CC(=O)O)C(=O)N[C@H](C(=O)O)C(C)C)[C@@H](C)O)[C@@H](C)CC)C(=O)[C@H](CCCNC(=N)N)NC(=O)[C@H](CCCNC(=N)N)NC(=O)[C@H](CCCNC(=N)N)NC(=O)[C@H](CCCNC(=N)N)NC(=O)[C@H](CCCNC(=N)N)NC(=O)[C@H](CCCNC(=N)N)NC(=O)[C@H](CCCNC(=N)N)NC(=O)[C@H](CCCNC(=N)N)NC(=O)[C@H](CCCNC(=N)N)NC(C)=O)C(=O)N[C@@H](CO)C(=O)N[C@H](C(=O)N[C@@H](CC(=O)O)C(=O)N[C@H](C(=O)O)C(C)C)[C@@H](C)O [Compound 31] | 
24 | CC[C@H](C)[C@H](NC(=O)CCOCCOCCN(CCOCCOCCC(=O)N[C@H](C(=O)N[C@@H](CCC(=O)O)C(=O)N[C@H](C(=O)N[C@@H](CC(=O)O)C(=O)N[C@H](C(=O)O)C(C)C)[C@@H](C)O)[C@@H](C)CC)C(=O)[C@@H](CCCNC(=N)N)NC(=O)[C@H](CCCNC(=N)N)NC(=O)[C@@H](CCCCN)NC(=O)[C@H](CCCCN)NC(=O)[C@@H](CCCNC(=N)N)NC(=O)CNC(=O)[C@@H](CCCNC(=N)N)NC(=O)[C@H](CCCNC(=N)N)NC(=O)[C@@H](CCCNC(=N)N)NC(C)=O)C(=O)N[C@@H](CCC(=O)O)C(=O)N[C@H](C(=O)N[C@@H](CC(=O)O)C(=O)N[C@H](C(=O)O)C(C)C)[C@@H](C)O [Compound 40] | 
24 | CC[C@H](C)[C@H](NC(=O)CCOCCOCCN(CCOCCOCCC(=O)N[C@H](C(=O)N[C@@H](CCC(=O)O)C(=O)N[C@H](C(=O)N[C@@H](CC(=O)O)C(=O)N[C@H](C(=O)O)C(C)C)[C@@H](C)O)[C@@H](C)CC)C(=O)[C@@H](CCCNC(=N)N)NC(=O)[C@@H](CCCNC(=N)N)NC(=O)[C@@H](CCCNC(=N)N)NC(=O)[C@@H](CCCNC(=N)N)NC(=O)[C@@H](CCCNC(=N)N)NC(=O)[C@@H](CCCNC(=N)N)NC(=O)[C@@H](CCCNC(=N)N)NC(=O)[C@@H](CCCNC(=N)N)NC(=O)[C@@H](CCCNC(=N)N)NC(C)=O)C(=O)N[C@@H](CCC(=O)O)C(=O)N[C@H](C(=O)N[C@@H](CC(=O)O)C(=O)N[C@H](C(=O)O)C(C)C)[C@@H](C)O [Compound 44] | 
